{"source": "paper PMC4909640", "about": "(EBioMedicine, 2016)", "test_system": "enteroendocrine proglucagon-containing cells (L-cells)", "conditions": "perfused mouse proximal small intestine, n = 4; basal to peak; P < 0.001"}
{"smiles": "[Cl-].[K+]", "note": "[KCl]", "values": [{"measurement": "increase of GLP-1 secretion during infusion", "value": "~ 10 fold"}, {"measurement": "increase of oxyntomodulin secretion during infusion", "value": "~ 9 fold"}]}
